According to patent US20090306165A1, “DIPEPTIDE COMPOUNDS CONTAINING D-HISTIDINE” (priority 2006, published 2009):

Key:
[1] = distribution in the rat after oral administration; type: in vivo
[2] = pharmacokinetic studies on laboratory animals monitoring plasma carnosine content by liquid chromatography-ESI triple quadrupole mass spectrometry; type: in vivo
[3] = detoxification of alpha, beta-unsaturated carbonyl compounds; conditions: compared with L-carnosine

distribution in the lung [1]: distributed in the lung | gastrointestinal absorption [2]: poor gastrointestinal absorption
Compound: NCCC(=O)N[C@H](Cc1c[nH]cn1)C(=O)O [D-carnosine, β-alanyl-D-histidine]
detoxification of the alpha, beta-unsaturated carbonyl compounds [3]: performs the same detoxification
